The source of these data is patent US20140221499A1, “NOVEL RODENT CONTROL AGENTS AND USES THEREOF” (priority 2011, published 2014).

The target of one assay is T1, TAAR5 (Mus musculus, UniProt Q5QD14).
T1 sequence (Q5QD14 1-337): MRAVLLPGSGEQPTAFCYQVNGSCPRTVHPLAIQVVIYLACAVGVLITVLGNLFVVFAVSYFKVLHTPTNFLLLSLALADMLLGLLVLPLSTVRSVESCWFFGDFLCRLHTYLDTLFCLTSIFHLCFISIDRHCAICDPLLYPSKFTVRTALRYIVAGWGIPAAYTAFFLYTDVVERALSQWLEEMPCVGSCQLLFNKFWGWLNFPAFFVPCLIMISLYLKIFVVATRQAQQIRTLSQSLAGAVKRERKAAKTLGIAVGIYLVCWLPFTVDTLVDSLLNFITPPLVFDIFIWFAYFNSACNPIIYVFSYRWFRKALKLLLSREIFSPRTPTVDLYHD
The settings on record: cited from earlier work.

Another assay has as its target T2, rTAAR7h (Rattus norvegicus, UniProt Q923Y4).
T2 sequence (Q923Y4 1-358): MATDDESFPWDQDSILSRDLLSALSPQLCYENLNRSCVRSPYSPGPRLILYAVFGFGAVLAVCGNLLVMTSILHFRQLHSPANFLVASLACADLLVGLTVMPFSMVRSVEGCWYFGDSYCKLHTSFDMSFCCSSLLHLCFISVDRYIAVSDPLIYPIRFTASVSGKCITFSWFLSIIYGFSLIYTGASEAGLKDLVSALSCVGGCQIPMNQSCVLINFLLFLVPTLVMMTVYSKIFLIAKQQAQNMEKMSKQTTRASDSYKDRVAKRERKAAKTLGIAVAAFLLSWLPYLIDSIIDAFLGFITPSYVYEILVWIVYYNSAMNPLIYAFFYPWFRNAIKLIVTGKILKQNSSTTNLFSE
Kind of assay: CRE-SEAP reporter gene assay in HEK293 cells transfected with rTAAR7h. The format is cell-based. Set-up: Full Taar coding regions were cloned into pcDNA3.1; expressed in transfected cells; host or cells: HEK293. The settings on record: FIG. 11A, functional with or without 'Rho tag', EC50 ± s.e.m., 4-parameter Hill equation. Here is the method: (§1) FIG. 11 illustrates the dose-dependent responses of TAARs to amines. HEK293 cells were cotransfected with plasmids encoding CRE-SEAP and rTAARs (a) or mTAARs (b), incubated with concentrations of ligands indicated, and assayed for reporter activity (triplicates±s.d.). EC50 values (±s.e.m, bottom right) were calculated using SigmaPlot (Systat Software) and a 4-parameter Hill equation.
The following mixes (10 μM of each indicated compounds) were tested for their ability to activate rat TAARs. Mix 1: butylamine, dibutylamine, hexylamine. Mix 2: 2-aminopentane, isoamylamine, isobutylamine, isopropylamine. Mix 3: N,N-dimethylcyclohexylamine, 1-methylindole, tryptamine, phenylethylamine. Mix 4: indole, 1-methylpyrrolidine, 1-methylpiperidine, pyrrolidine. […]
(§2) Full Taar coding regions were cloned into pcDNA3.1-(Invitrogen) with or without a 5′ DNA extension of 69 bp encoding the first 20 amino acids of bovine rhodopsin followed by a cloning linker ([…]). […] Fluorescence was measured on an EnVision plate reader (Perkin Elmer) and SEAP activity graphed as relative fluorescence of a phosphatase substrate.
(§3) Here, we set out to identify agonists for additional mouse and rat TAARs. […] Transfected cells were incubated with test chemicals, and phosphatase activity was quantified with a fluorescent substrate as a reporter for TAAR activation. […]
(In a reporter assay the amount or activity of a reporter protein is the signal.)

In a further assay the target is T3, mTAAR7b (Mus musculus, UniProt Q5QD11).
T3 sequence (Q5QD11 1-358): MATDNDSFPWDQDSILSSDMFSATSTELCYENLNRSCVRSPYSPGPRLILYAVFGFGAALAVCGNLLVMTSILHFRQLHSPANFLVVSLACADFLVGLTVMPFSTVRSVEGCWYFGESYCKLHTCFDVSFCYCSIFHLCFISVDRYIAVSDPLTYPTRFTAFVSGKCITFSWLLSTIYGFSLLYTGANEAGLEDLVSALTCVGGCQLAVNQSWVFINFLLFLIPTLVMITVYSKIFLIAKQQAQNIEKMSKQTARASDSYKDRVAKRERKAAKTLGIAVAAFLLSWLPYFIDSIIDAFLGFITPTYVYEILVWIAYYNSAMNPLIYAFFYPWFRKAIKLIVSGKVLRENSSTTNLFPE
In words: CRE-SEAP reporter gene assay in HEK293 cells transfected with mTAAR7b. The settings on record: FIG. 11B, functional with or without 'Rho tag', EC50 ± s.e.m., 4-parameter Hill equation. Set-up: Full Taar coding regions were cloned into pcDNA3.1; expressed in transfected cells; host or cells: HEK293. The format is cell-based. The protocol:
as §1
Chemicals tested for the ability to activate mouse TAARs include those previously described (Liberles, S. D., and Buck, L. B. (2006) A second class of chemosensory receptors in the olfactory epithelium, Nature 442, 645-650), as well as the following mixes (5 μM of each indicated compounds). Mix 1: N,N-dimethyl-cyclohexylamine, N,N-dimethyl-phenylethylamine, creatinine, taurine. […]
as §2, §3

On to `CN(C)C` [Trimethylamine, trimethylamine], for which the TAAR5 activation entry on TAAR5 is on record as “activates TAAR5”. As to `CCCCCCCCN(C)C` [N,N-DIMETHYLOCTYLAMINE, N,N-dimethyloctylamine], the EC50 at rTAAR7h was 12.7 ± 6.2 µM.

`CCCCN(C)C` [N,N-DIMETHYLBUTYLAMINE, N,N-dimethylbutylamine] registered a half-maximal effective concentration (EC50) at mTAAR7b of 20.1 ± 8.9 µM.

As usually defined, the EC50 is the concentration at which the effect is half-maximal.
